Reference: patent US20220257619A1, “LONG-ACTING FORMULATIONS OF TENOFOVIR ALAFENAMIDE” (Gilead Sciences, Inc., priority 2019, published 2022)
Converted amounts (≈) assume the structure as drawn. Like-named read-outs stand apart in the source and are kept apart here. Marks after values point to notes of the source that are not given here.

Key:
physchem = settings: 37 °C, organic solvent or mixture, thermodynamic from solid
[1] = solvent BB, 37° C., asterisk: taken at 4 days, as opposed to 5 days

Molecule | Solubility (mg/mL, Calculated as Free Base Equivalent) [1] | solubility at 1 day (physchem; ACN) [mg/mL] | solubility at 5 days (physchem; ACN) [mg/mL] | solubility at 1 day (physchem; DCM) [mg/mL] | solubility at 5 days (physchem; DCM) [mg/mL] | solubility at 1 day (physchem; DMSO) [mg/mL] | solubility at 5 days (physchem; DMSO) [mg/mL] | solubility at 1 day (physchem; NMP) [mg/mL] | solubility at 5 days (physchem; NMP) [mg/mL] | solubility at 1 day (physchem; PC) [mg/mL] | solubility at 5 days (physchem; PC) [mg/mL] | Solubility (mg/mL, Calculated as Free Base Equivalent) (solvent ACN, 37° C./5 days) [mg/mL] | Solubility (mg/mL, Calculated as Free Base Equivalent) (solvent DCM, 37° C./5 days) [mg/mL] | Solubility (mg/mL, Calculated as Free Base Equivalent) (solvent DMSO, 37° C./5 days) [mg/mL] | Solubility (mg/mL, Calculated as Free Base Equivalent) (solvent NMP, 37° C./5 days) [mg/mL] | Solubility (mg/mL, Calculated as Free Base Equivalent) (solvent PC, 37° C./5 days) [mg/mL]
CC(C)OC(=O)[C@H](C)N[P@](=O)(CO[C@H](C)Cn1cnc2c(N)ncnc21)Oc1ccccc1 [TAF Free base, (S)-isopropyl-2-(((S)-((((R)-1-(6-amino-9H-purin-9-yl)propan-2-yl)oxy)methyl)(phenoxy)phosphoryl)amino)propanoate] | 5.0 mg/mL | 15 (≈ 31.5 mM) | 13 (≈ 27.3 mM) | 146 (≈ 306 mM) | 384 (≈ 806 mM) | 96 (≈ 201 mM) | 182 (≈ 382 mM) | 96 (≈ 201 mM) | 161 (≈ 338 mM) | 15 (≈ 31.5 mM) | 26 (≈ 54.6 mM) |  |  |  |  | 
tenofovir alafenamide hemifumarate [TAF Hemifumarate] | 3.9* mg/mL |  |  |  |  |  |  |  |  |  |  | 11 | 97 | 132 | 160 | 22
